This note sets out measurements from patent publication US11878970B2, “Allosteric chromenone inhibitors of phosphoinositide 3-kinase (PI3K) for the treatment of disease” (Petra Pharma Corporation, priority 2021, dated 2024).

Molecules are shown by their SMILES.

In experiment [1] the target is T1, PI3K-α (PIK3CA) wild-type (WT), p110α/p85α complex (Homo sapiens, UniProt P42336).
T1 construct: Recombinant, catalytically active human full length PIK3KA Wild-type and H1047R mutant; 6×His (N); purchased EMD Millipore Sigma 14-602M
Description: PI3K-alpha kinase (PIK3CA) biochemical activity, ADP-Glo, wild-type. To be noted: Soy PI lipid substrate. The method in brief:
(§1)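 ADP formation measured by ADP-Glo luminescence after reaction at 27 °C to about 10% ATP turnover, using 20 uM ATP, 50 uM PIP2diC8 or soy PI lipid, HEPES pH 7.4 with MgCl2. Enzyme (1-5 nM WT or H1047R p110α/p85α) and compound preincubated 1 h first; 10-point 1:3 curves fitted four-parameter for IC50.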

Experiment [2] deals with PI3K-α (PIK3CA) in MDA-MB-453 cells (Homo sapiens, UniProt P42336). Description: PI3K-alpha kinase (PIK3CA) in vitro cell based assay, MDA-MB-453 cells, SureFire Ultra AlphaLisa. To be noted: read-out: PI3K-α (PIK3CA) in vitro cell based assay IC50. The method in brief: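 Cells treated 3 h in serum-free MEM with 1 μg/mL insulin, 10-point 1:3 series in 0.3% DMSO, then lysed for SureFire Ultra AlphaLisa read-out. Inhibition normalized to DMSO (max) and 1 μM GDC-0032 (min); duplicate averages fitted by 4-parameter logistic for relative IC50.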
Sequence of PI3K-α (PIK3CA) in MDA-MB-453 cells (P27986 2-724): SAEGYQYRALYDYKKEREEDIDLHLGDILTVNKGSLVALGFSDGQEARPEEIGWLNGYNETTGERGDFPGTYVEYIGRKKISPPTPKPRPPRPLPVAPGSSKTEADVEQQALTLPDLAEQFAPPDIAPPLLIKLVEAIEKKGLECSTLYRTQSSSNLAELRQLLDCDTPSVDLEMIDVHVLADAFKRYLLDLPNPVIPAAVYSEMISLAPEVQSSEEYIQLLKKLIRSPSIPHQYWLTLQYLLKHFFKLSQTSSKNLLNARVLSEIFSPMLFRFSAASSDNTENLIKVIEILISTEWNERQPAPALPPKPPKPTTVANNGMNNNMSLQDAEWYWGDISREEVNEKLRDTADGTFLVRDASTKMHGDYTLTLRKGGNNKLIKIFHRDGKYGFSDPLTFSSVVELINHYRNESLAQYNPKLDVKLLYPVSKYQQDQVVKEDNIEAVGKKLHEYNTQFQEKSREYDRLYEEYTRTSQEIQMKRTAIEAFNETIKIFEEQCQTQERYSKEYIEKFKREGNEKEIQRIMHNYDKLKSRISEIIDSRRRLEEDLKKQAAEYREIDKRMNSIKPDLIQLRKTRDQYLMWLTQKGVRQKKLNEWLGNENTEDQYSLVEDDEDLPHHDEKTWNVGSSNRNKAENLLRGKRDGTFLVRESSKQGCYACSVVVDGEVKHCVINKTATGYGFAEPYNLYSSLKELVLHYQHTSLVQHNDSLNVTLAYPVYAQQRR
Sequence of PI3K-α (PIK3CA) in MDA-MB-453 cells (P42336 whole entry): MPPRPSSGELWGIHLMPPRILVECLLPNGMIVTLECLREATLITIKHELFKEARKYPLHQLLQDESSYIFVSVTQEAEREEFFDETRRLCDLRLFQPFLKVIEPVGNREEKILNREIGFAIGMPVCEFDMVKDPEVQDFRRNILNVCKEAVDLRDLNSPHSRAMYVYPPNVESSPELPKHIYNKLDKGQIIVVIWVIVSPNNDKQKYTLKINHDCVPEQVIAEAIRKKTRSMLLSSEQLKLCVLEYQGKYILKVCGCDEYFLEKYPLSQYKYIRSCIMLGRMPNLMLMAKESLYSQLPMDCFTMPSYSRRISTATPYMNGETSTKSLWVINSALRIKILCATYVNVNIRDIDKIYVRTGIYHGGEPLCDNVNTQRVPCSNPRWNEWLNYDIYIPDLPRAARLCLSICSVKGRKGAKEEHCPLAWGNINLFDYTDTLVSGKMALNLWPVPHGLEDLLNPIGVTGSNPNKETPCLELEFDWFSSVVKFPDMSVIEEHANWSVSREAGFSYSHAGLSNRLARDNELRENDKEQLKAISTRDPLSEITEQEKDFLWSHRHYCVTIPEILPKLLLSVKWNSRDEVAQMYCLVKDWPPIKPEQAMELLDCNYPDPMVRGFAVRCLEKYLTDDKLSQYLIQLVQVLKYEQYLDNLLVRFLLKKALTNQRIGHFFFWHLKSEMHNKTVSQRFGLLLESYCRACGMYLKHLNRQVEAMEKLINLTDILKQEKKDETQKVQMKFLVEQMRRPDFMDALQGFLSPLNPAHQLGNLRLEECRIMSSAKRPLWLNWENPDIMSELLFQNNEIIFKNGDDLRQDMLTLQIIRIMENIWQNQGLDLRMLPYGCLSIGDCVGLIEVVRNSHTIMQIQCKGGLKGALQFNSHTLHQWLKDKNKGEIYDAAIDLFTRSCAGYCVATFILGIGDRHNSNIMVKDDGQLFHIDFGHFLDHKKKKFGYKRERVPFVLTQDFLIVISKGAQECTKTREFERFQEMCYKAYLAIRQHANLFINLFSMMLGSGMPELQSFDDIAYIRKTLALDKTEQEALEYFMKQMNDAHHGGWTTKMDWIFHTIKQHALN

In experiment [3] the target is T2, PI3K-α (PIK3CA) H1047R mutant, p110α/p85α complex (Homo sapiens, UniProt P42336, H1047R).
T2 construct: Recombinant, catalytically active human full length PIK3KA Wild-type and H1047R mutant; 6×His (N); purchased EMD Millipore Sigma 14-792M
T2 sequence (P42336 whole entry H1047R): as the sequence (P42336 whole entry) above, with H1047R counted along it
T2 sequence (P27986 whole entry partner): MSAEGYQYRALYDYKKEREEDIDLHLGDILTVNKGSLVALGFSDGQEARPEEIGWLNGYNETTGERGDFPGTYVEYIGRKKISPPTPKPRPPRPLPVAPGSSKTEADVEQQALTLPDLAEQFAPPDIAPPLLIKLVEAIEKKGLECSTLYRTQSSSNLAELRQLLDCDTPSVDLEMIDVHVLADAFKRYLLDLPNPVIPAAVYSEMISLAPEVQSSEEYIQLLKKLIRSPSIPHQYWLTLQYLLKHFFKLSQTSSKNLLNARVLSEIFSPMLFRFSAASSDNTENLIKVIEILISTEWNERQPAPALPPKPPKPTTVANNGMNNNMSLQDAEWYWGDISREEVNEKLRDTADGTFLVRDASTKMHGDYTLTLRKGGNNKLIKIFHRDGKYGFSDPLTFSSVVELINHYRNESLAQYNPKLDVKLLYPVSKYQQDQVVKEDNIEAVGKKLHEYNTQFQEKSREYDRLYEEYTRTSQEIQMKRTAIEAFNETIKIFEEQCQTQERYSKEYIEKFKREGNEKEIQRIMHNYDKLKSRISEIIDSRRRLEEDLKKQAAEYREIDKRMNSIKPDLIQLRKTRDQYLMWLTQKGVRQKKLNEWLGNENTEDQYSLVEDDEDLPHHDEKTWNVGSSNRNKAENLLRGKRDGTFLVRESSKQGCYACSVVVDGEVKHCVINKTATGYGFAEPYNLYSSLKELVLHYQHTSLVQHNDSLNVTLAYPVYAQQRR
In words: PI3K-alpha kinase (PIK3CA) biochemical activity, ADP-Glo, H1047R mutant. To be noted: Soy PI lipid substrate. The method in brief:
as §1
Background: In ADP-Glo the light output rises with the ADP produced.

The term IC50 denotes the midpoint of a concentration-inhibition curve. As to `Cc1cc(C(C)Nc2ccccc2C(=O)O)c2oc(-c3ccc4cc[nH]c4n3)cc(=O)c2c1` (single isomer, unassigned) [Example 4, 2-[1-[6-Methyl-4-oxo-2-(1H-pyrrolo[2,3-b]pyridin-6-yl)chromen-8-yl]ethylamino]benzoic acid], the IC50 in experiment [1] was 500 to 1000 nM; in experiment [2] it was under 50 nM; in experiment [3], under 500 nM.
For `Cc1cc(C(C)Nc2ccccc2C(=O)O)c2oc(-c3ccc4ccn(C)c4c3)cc(=O)c2c1` (single isomer, unassigned) [Example 158, 2-[1-[6-Methyl-2-(1-methylindol-6-yl)-4-oxo-chromen-8-yl]ethylamino]benzoic acid] the same measures were 1000 to 5000 nM, under 50 nM and under 500 nM.
As to `Cc1cc([C@@H](C)Nc2ccc(Cl)nc2C(=O)O)c2oc(-c3nc4ccccc4o3)c(C)c(=O)c2c1` [Example 263, 3-[[(1R)-1-[2-(1,3-benzoxazol-2-yl)-3,6-dimethyl-4-oxo-chromen-8-yl]ethyl]amino]-6-chloro-pyridine-2-carboxylic acid; 2,2,2-trifluoroacetic acid], the values for the IC50 in experiment [1], in experiment [2] and in experiment [3] were 1000 to 5000 nM, under 50 nM and under 500 nM, respectively.
As for `CC(Nc1ccc(Cl)nc1C(=O)O)c1cc(C(F)(F)F)cc2c(=O)cc(-c3ccc4c(cnn4C)c3)oc12` (single isomer, unassigned) [Example 168, 6-Chloro-3-[1-[2-(1-methylindazol-5-yl)-4-oxo-6-(trifluoromethyl)chromen-8-yl]ethylamino]pyridine-2-carboxylic acid], the figures for the IC50 in experiment [1], in experiment [2] and in experiment [3] were under 500 nM, 50 to 100 nM and under 500 nM, respectively.
Take `Cc1cc([C@@H](C)Nc2cccc(F)c2C(=O)O)c2oc(-c3cc4cnccc4o3)c(C)c(=O)c2c1` [Example 264, 2-Fluoro-6-[[(1R)-1-(2-furo[3,2-c]pyridin-2-yl-3,6-dimethyl-4-oxo-chromen-8-yl)ethyl]amino]benzoic acid; 2,2,2-trifluoroacetic acid]: the IC50 in experiment [1] is under 500 nM; in experiment [2] it was under 50 nM; in experiment [3], under 500 nM.
With `Cc1cc(C(C)Nc2ccccc2C(=O)O)c2oc(-c3ccc4oc(=O)[nH]c4c3)cc(=O)c2c1` (single isomer, unassigned) [Example 24, 2-[1-[6-Methyl-4-oxo-2-(2-oxo-3H-1,3-benzoxazol-5-yl)chromen-8-yl]ethylamino]benzoic acid], the IC50 is 1000 to 5000 nM in experiment [1], 50 to 100 nM in experiment [2] and under 500 nM in experiment [3].
For `Cc1cc(C(C)Nc2ccccc2C(=O)O)c2oc(-c3ccc4cnn(C)c4c3)c(C)c(=O)c2c1` (single isomer, unassigned) [Example 149, 2-[1-[3,6-Dimethyl-2-(1-methylindazol-6-yl)-4-oxo-chromen-8-yl]ethylamino]benzoic acid], in that order: under 500 nM, under 50 nM and under 500 nM.
Consider `Cc1cc(C(C)Nc2ccccc2C(=O)O)c2oc(-c3ccc4nn(C)cc4c3)cc(=O)c2c1` (single isomer, unassigned) [Example 75, 2-[1-[6-Methyl-2-(2-methylindazol-5-yl)-4-oxo-chromen-8-yl]ethylamino]benzoic acid], for which the IC50 is 500 to 1000 nM in experiment [1], under 50 nM in experiment [2] and under 500 nM in experiment [3].
Take `Cc1cc(C(C)Nc2ccccc2C(=O)O)c2oc(-c3cccc4oc(C)nc34)cc(=O)c2c1` (single isomer, unassigned) [Example 117, 2-[1-[6-Methyl-2-(2-methyl-1,3-benzoxazol-4-yl)-4-oxo-chromen-8-yl]ethylamino]benzoic acid]: the IC50 in experiment [1] was 1000 to 5000 nM; in experiment [2], over 500 nM; in experiment [3] it was 500 to 1000 nM.
Take `Cc1cc(C(C)Nc2ccccc2C(=O)O)c2oc(-c3ccc4nn(C)cc4n3)cc(=O)c2c1` (single isomer, unassigned) [Example 54, 2-[1-[6-Methyl-2-(2-methylpyrazolo[4,3-b]pyridin-5-yl)-4-oxo-chromen-8-yl]ethylamino]benzoic acid]: the figures for the IC50 in experiment [1], in experiment [2] and in experiment [3] were 1000 to 5000 nM, under 50 nM and under 500 nM, respectively.
With `Cc1cc([C@@H](C)Nc2ccc(Br)nc2C(=O)O)c2oc(-c3ccc4nn(C)cc4c3)c(C)c(=O)c2c1` [Example 244, 6-Bromo-3-[[(1R)-1-[3,6-dimethyl-2-(2-methylindazol-5-yl)-4-oxo-chromen-8-yl]ethyl]amino]pyridine-2-carboxylic acid], the half-maximal inhibitory concentration (IC50) is under 500 nM in experiment [1], under 50 nM in experiment [2] and under 500 nM in experiment [3].
With `Cc1cc([C@@H](C)Nc2ccc(Cl)nc2C(=O)O)c2oc(-c3ccc4nc(C)sc4n3)cc(=O)c2c1` [Example 251, 6-Chloro-3-[[(1R)-1-[6-methyl-2-(2-methylthiazolo[5,4-b]pyridin-5-yl)-4-oxo-chromen-8-yl]ethyl]amino]pyridine-2-carboxylic acid], the results for the IC50 in experiment [1], in experiment [2] and in experiment [3] were 1000 to 5000 nM, 50 to 100 nM and under 500 nM, respectively.
Turning to `Cc1cc(C(C)Nc2ccccc2C(=O)O)c2oc(-c3ccc4c(c3)OCO4)c(C)c(=O)c2c1` (single isomer, unassigned) [Example 93, 2-[1-[2-(1,3-Benzodioxol-5-yl)-3,6-dimethyl-4-oxo-chromen-8-yl]ethylamino]benzoic acid], the IC50 was 500 to 1000 nM in experiment [1], under 50 nM in experiment [2] and under 500 nM in experiment [3].
As to `Cc1cc(C(C)Nc2ccccc2C(=O)O)c2oc(-c3ccc4nn(C)cc4c3)c(C)c(=O)c2c1` (single isomer, unassigned) [Example 91, 2-[1-[3,6-Dimethyl-2-(2-methylindazol-5-yl)-4-oxo-chromen-8-yl]ethylamino]benzoic acid], the IC50 in experiment [1] was 500 to 1000 nM; in experiment [2], under 50 nM; in experiment [3], under 500 nM.
Take `Cc1cc(C(C)Nc2ccccc2C(=O)O)c2oc(-c3cc4ccncc4o3)c(C)c(=O)c2c1` (single isomer, unassigned) [Example 151, 2-[1-(2-Furo[2,3-c]pyridin-2-yl-3,6-dimethyl-4-oxo-chromen-8-yl)ethylamino]benzoic acid]: the IC50 in experiment [1] was 500 to 1000 nM; in experiment [2], under 50 nM; in experiment [3], under 500 nM.
In the case of `Cc1cc(C(C)Nc2ccccc2C(=O)O)c2oc(-c3ccc4nc(C)cn4c3)cc(=O)c2c1` (single isomer, unassigned) [Example 37, 2-[1-[6-Methyl-2-(2-methylimidazo[1,2-a]pyridin-6-yl)-4-oxo-chromen-8-yl]ethylamino]benzoic acid], the IC50 in experiment [1] was 1000 to 5000 nM; in experiment [2] it was over 500 nM; in experiment [3] it was over 10000 nM.
For `Cc1cc([C@@H](C)Nc2ccccc2C(=O)O)c2oc(-c3ccc4nc(C)oc4c3)c(C)c(=O)c2c1` [Example 261, 2-[[(1R)-1-[3,6-Dimethyl-2-(2-methyl-1,3-benzoxazol-6-yl)-4-oxo-chromen-8-yl]ethyl]amino]benzoic acid], in that order: 500 to 1000 nM, under 50 nM and under 500 nM.
For `Cc1cc(C(C)Nc2ccccc2C(=O)O)c2oc(-c3ccc4c(c3)NC(=O)C4)cc(=O)c2c1` (single isomer, unassigned) [Example 115, 2-[1-[6-Methyl-4-oxo-2-(2-oxoindolin-6-yl)chromen-8-yl]ethylamino]benzoic acid], the IC50 in experiment [1] was 1000 to 5000 nM; in experiment [2], 100 to 500 nM; in experiment [3], under 500 nM.
Turning to `Cc1cc(C(C)Nc2ccccc2C(=O)O)c2oc(-c3cc(C)c4nn(C)cc4c3)cc(=O)c2c1` (single isomer, unassigned) [Example 144, 2-[1-[2-(2,7-Dimethylindazol-5-yl)-6-methyl-4-oxo-chromen-8-yl]ethylamino]benzoic acid], the IC50 is 1000 to 5000 nM in experiment [1], under 50 nM in experiment [2] and under 500 nM in experiment [3].
In the case of `Cc1cc(C(C)Nc2ccccc2C(=O)O)c2oc(-c3cccc4cn(C)nc34)cc(=O)c2c1` (single isomer, unassigned) [Example 116, 2-[1-[6-Methyl-2-(2-methylindazol-7-yl)-4-oxo-chromen-8-yl]ethylamino]benzoic acid], the IC50 is over 10000 nM in experiment [1], 100 to 500 nM in experiment [2] and under 500 nM in experiment [3].
With `Cc1cc(C(C)Nc2ccc(Cl)nc2C(=O)O)c2oc(-c3ccc4cnn(C)c4c3)cc(=O)c2c1` (single isomer, unassigned) [Example 219, 6-Chloro-3-[1-[6-methyl-2-(1-methylindazol-6-yl)-4-oxo-chromen-8-yl]ethylamino]pyridine-2-carboxylic acid], the IC50 in experiment [1] was 1000 to 5000 nM; in experiment [2], over 500 nM; in experiment [3], 1000 to 5000 nM.
As for `Cc1cc([C@@H](C)Nc2ccccc2C(=O)O)c2oc(-c3cc(C(F)(F)F)c4nn(C)cc4c3)cc(=O)c2c1` [Example 198, 2-[[(1R)-1-[6-Methyl-2-[2-methyl-7-(trifluoromethyl)indazol-5-yl]-4-oxo-chromen-8-yl]ethyl]amino]benzoic acid], the IC50 is under 500 nM in experiment [1], 50 to 100 nM in experiment [2] and under 500 nM in experiment [3].
